Several values for one entry are separate records, joined by “and”; a condition that tells them apart may be missing. Equal entries are not always repeated.
Test system: NK cell activity (YAC-I cells as target)
Experiment: NK cell cytotoxicity assay, cells of pretreated donor mice
Format: in vivo, mouse (C57BL/6)
Details: spleen, effector/target 100:1
Method: Elimination of endogenous and inducible NK cell activity from the cell donor mice (C57BL/6)
Six- to ten-week old C57BL/6 mice were treated for 24 hours orally or intravenously with HE-33. Orally-treated mice received 400 mg/kg twice a day (Bid), and intravenously treated mice received a single 100 mg/kg i.v.
NK Cell cytotoxicity assay: At the end of the 24 hour pre-treatment with HE-33, all treated mice and control, non-treated mice (i.e., mice treated with vehicle, PBS) were sacrificed by cervical dislocation. Spleens and lymph nodes were removed and single-cell suspension of pooled spleen and lymph nodes from mice in each group of donor were prepared in RPMI-1640 supplemented with 10% fetal bovine serum (FBS) and 1% penicillin/streptomycin. Target cells were ^51 Cr-labeled Moloney leukemia virus-induced lymphoma (YAC) tumor cells. Different effector:target cell ratios were cultured in triplicate samples in U-bottomed microtiter plates for 4 hours at 37° C. in a humidified atmosphere containing 5% CO2. The microtiter plates were then centrifuged, and 100-μL aliquots of supernatants were assayed for ^51 Cr release. Results were expressed as percent lysis and percent suppression of lysis. The method of Ojo-Amaize, E. et. al., Scand. Journal of Immunology, 1978, 7: 297-306, was used for the NK assays.

## CCCN(CCC)c1ncnc2c1ncn2[C@@H]1O[C@@H]2COP(=O)(O)O[C@H]2[C@H]1O [HE-33, N^6,N^6 -di-n-Propyl-c-AMP]
100 mg/kg IV
  Percent Lysis (NK cell activity): 14%
400 mg/kg (Bid) oral
  Percent Lysis (NK cell activity): 5%
  Percent Suppression of NK cell activity: ~80% and 76%
